Experimental findings from PubChem BioAssay AID720615 (Broad Institute, 2013) are described below.

Records with an inconclusive call do not appear. Calls of active or inactive are those of the source. How the calls were made is not given here.

A short description of experiment [1]: caspase 3/7 activation in U251 cells, mechanism study for HRAS target identification, cell-based, luminescence, several timepoints, dry powder (AID 720615). The note with it: U251 HRAS cells, caspase 3/7 luminescence, apoptosis; at 35 µM (top of the series).
For experiment [2], the system named is U251 HRAS cells, caspase 3/7 luminescence, apoptosis. Described as above.

`CCC(=O)N(c1ccc(OC)c(Cl)c1)C(C(=O)NCCc1ccccc1)c1cccs1` (stereo not given): in experiment [1], the caspase 3/7 activation was 4.74% (inactive).

As for `COc1ccc(N(C(=O)CCl)C(C(=O)NCCc2ccccc2)c2cccs2)cc1Cl` (stereo not given), the AC40 is 5.7 µM in experiment [2], 14.7 µM in experiment [2] (measured here: timepoint 1 caspase activation), 1.45 µM in experiment [2] (measured here: timepoint 2 caspase activation) and 0.948 µM in experiment [2] (measured here: timepoint 3 caspase activation).
